Reference: patent US5532229A, “Topical administration of vitamin D to mammals” (priority 1994, dated 1996)

Columns and labels:
[1] = Experiment 2: uptake of [14C]-vitamin D3 tracer into serum and conversion to [14C]-25(OH)D3; type: in vivo, Male Wistar rats; conditions: tracer added to last day's dose
Procedure: One dose of [carbon-14]-labelled vitamin D3 was given at the time of the last of 14 daily doses of nonradioactive vitamin D3. The graphs show the uptake and metabolism of one [^14 C]-vitamin D3 dose during the course of gastric or dermal supplementation with vitamin D3. The tracer was given in addition to the usual, 8 μg/day vitamin D3 dose, and by the same route. Radioactivity in serum was isolated by chromatography to measure that which elutes as vitamin D3, or as […], Each point is the mean of results from six rats;
Uptake of radioactive vitamin D3 from skin or gut during the longer term treatment with vitamin D3 at 20 nmol/day.
The previous experiment 1 involved only one acute dose of a minute, tracer amount of vitamin D3. It remained possible that dermal application could not deliver a larger, more nutritionally relevant amount of vitamin D3. This experiment 2 looked at what happens when vitamin D3 is given during the course of daily treatment with a moderate amount of vitamin D3.
After 30 days, the rats were divided into three groups of 6: one group continued with no supplement, one group was given daily vitamin D3 supplement, 8 μg/day either by gastric tube, the third received the supplement by application to the skin in 50 μL ethanol. Vitamin D3 was given for 3 wk. The day before the rats were killed, the vitamin D3 dose was supplemented with [^14 C]-labelled vitamin D3, 915,000 cpm per rat. Blood was obtained from the tail of each rat at 3 h, 9 h, and by heart puncture when the rats were anesthetized for killing, 24 h after giving the tracer. The blood was extracted and chromatographed to distinguish [^14 C]-vitamin D3 from the [^14 C]-25(OH)D3generated from it. Radioactivity was also measured in the liver, kidney, and adipose tissue. Serum nonradioactive 25(OH)D3 was also measured.

[2] = Experiment 3: serum 25(OH)D3 after 6 weeks of vitamin D3 nutrition; type: in vivo, Male Wistar rats
Procedure: Male, Wistar rats were obtained at 120-130 g, and placed on a 0.01% calcium, 0.7% phosphate diet that was vitamin D deficient (Teklad Test Diets, Madison, WI) this was for one week to help deplete vitamin D stores. For the next three weeks the rats were fed the vitamin D-deficient diet, but with normal, 0.5%, calcium. Starting with these 3 weeks, the rats were divided into four vitamin D3 -treatment groups, initially, nine rats per group: group a) supplemented once weekly with 0.6 μg vitamin D3 (average dose, 0.08 μg/day); group b) supplemented once every second day with vitamin D3 to provide 2 nmol/day, i.e., each dose was 4 nmol of vitamin D3; group c) supplemented once every second day with vitamin D3 to provide 8 μg/day. The preceding groups all received the vitamin D3 through an infant-feeding tube inserted through the mouth into the stomach. One group, d), received its vitamin D3 in the ethanol applied onto a shaved 2 cm×2 cm patch of skin on the back, this was done every second day to provide vitamin D3 at 8 μg/day. The volume of each dose of vitamin D3 given was adjusted so that the stated doses are per 250 g body weight. […]
Biochemical measurements. 1,25(OH)2 D3 in serum was measured by calf-thymus receptor-binding assay after initial purification of 1,25(OH)2 D3 with C18-OH cartridges (5). For the serum volumes that were minimal, serum was measured out in 50 μL increments, and the final result was adjusted for the volume of sample analyzed. […] The material eluting as 1,25(OH)2 D3 was evaporated and redissolved in acetonitrile: water for further purification with C18-OH cartridges and quantitation by thymus receptor assay, as described for serum. Renal 24-hydroxylase was measured by incubating mitochondria with [^3 H]-25(OH)D3 as substrate (Vieth and Fraser, J Biol Chem. 254:12455-12460;1979). […]

[3] = Experiment 4: urinary calcium to creatinine ratio after gastric or dermal vitamin D3; type: in vivo, rats
Procedure: Each point represents the mean ±SEM of 7 normal, 250-g rats.
Toxicity: Short-term responses to increasing doses of vitamin D3 given dermally or by gastric tube.
To compare the efficacy of increasing doses of vitamin D3 in the short term. A fatal oral vitamin D3 dose is 14 days of 2600 μg/day (Sheppard RM and DeLuca HF, Arch Biochem Biophys 1980; 202: 43-55). The present experiment was designed to compare effects of doses up to this level, given by gastric tube or dermally.

[4] = 50 μg in 10 μL 95% ethanol, shaved skin of rats; cited from earlier work

C=C1CC[C@H](O)C/C1=C/C=C1\CCC[C@]2(C)[C@@H]([C@H](C)CCCC(C)C)CC[C@@H]12 [vitamin D3]
rate of uptake into circulation, dermal vs gastric [1]: more slowly when given via the dermal route
effectiveness of dermal vs oral route in raising 25(OH)D3 ([2]; 20 nmol/250 g/day): 85%
serum 25(OH)D3 ([2]; dermal 8 μg/day): 127 ± 4 nmol/L
serum 25(OH)D3 ([2]; gastric 8 μg/day): 148 ± 10 nmol/L
increase in calcium in the urine ([3]; highest dermal dose): 2.5 -fold
increase in calcium in the urine ([3]; highest gastric dose): 6 -fold
response (intestinal calcium transport and serum calcium) [4]: no response was detected
